Source: paper PMC10041521, “Fluorescent Activity-Based Probe To Image and Inhibit Factor XIa Activity in Human Plasma” (Journal of Medicinal Chemistry, 2023)
Several values for one entry are separate records, joined by “and”; a condition that tells them apart may be missing. Identical values can stand only once.

Assays:
Format in all cases: biochemical
APC = biological target: T1, APC (Homo sapiens, UniProt P04070); assay: Inhibition kinetics (kobs/I) of inhibitor and fluorescent ABP; details: pseudo-first-order, ABP/inhibitor 308 nM to 50 μM, 10 nM enzyme, substrate 154 μM SMA5, 37 °C, 30 min; mean ± s.d., n = 3; SD
T1 construct: from tissue; host or cells: fresh frozen plasma
Method: (§1) Protein C, factor X, and prothrombin were purified from fresh frozen plasma and then activated as previously described.[33]
(§2) All kinetic assays were performed using a spectrofluorometer (Molecular Devices SpectraMax Gemini XPS) on 96-well, white, flat bottom, nontreated plates (Corning). The parameters were as follows: excitation/emission wavelength, 355/460 nm (cutoff, 455 nm); varying concentrations of substrates, ABPs, inhibitor, and enzymes. The assay buffer (20 mM Tris-base, 150 mM NaCl, 5 mM CaCl2, pH 7.4) was prepared at room temperature, and the enzyme kinetic studies were performed at 37 °C. All enzymes were preincubated in assay buffer for 15 min at 37 °C before addition to the wells. Each assay was repeated at least twice, and the data represent the average of these repetitions. The obtained results were analyzed using SoftMax (Molecular Devices), GraphPad Prism, and Microsoft Excel software.
(§3) The kobs/I parameters for APC, thrombin, fXa, and fXIa were measured under pseudo-first-order conditions. […] Next, 60 μL of APC, thrombin, fXa, or fXIa (at a concentration of 10 nM) preincubated at 37 °C was added, and the fluorescence increase over time was measured (λex = 355 nm, λem = 460 nm) for 30 min. The kobs/I parameters were calculated in GraphPad Prism and Microsoft Excel software.[41]

fXa = biological target: T2, fXa (Homo sapiens, UniProt P00742); assay: as above; details: pseudo-first-order, ABP/inhibitor 308 nM to 50 μM, 10 nM enzyme, substrate 50 μM SMII18, 37 °C, 30 min; mean ± s.d., n = 3; SD
T2 construct: from tissue; host or cells: fresh frozen plasma
Method: as §1, §2, §3

fXIa [1] = biological target: T3, fXIa (Homo sapiens, UniProt P03951); assay: as above; design: complete conversion of the single chain zymogen to the two-chain active form; made in house; host or cells: HEK293 cells expressing EBNA (pCEP4 vector); details: pseudo-first-order, ABP/inhibitor 308 nM to 50 μM, 10 nM enzyme, substrate 100 μM SMX1, 37 °C, 30 min, corrected for substrate KM; mean ± s.d., n = 3; SD
Method: as §2
as §3, with “conditions. Inhibitor and ABP were serially diluted in assay buffer until the seventh well to obtain concentrations ranging from 308 nM to 50 μM.” for “conditions.”

fXIa [2] = biological target: T3, fXIa; assay: Labeling of purified coagulation factors with ABPs, SDS-PAGE and blot; design: complete conversion of the single chain zymogen to the two-chain active form; made in house; host or cells: HEK293 cells expressing EBNA (pCEP4 vector); details: 200 nM fXIa preincubated with 5 μM inhibitor for 60 min, then probe 1:1, 30 min
Method: To determine biotin-labeled ABPs selectivity, four purified coagulation factors (APC, thrombin, fXa, and fXIa) with a constant concentration of 200 nM were incubated separately with each probe (the probe/enzyme ratio was 1) in assay buffer for 30 min at 37 °C. Each enzyme was incubated with each probe in a volume of 40 μL followed by reduction with 20 μL of 3 × SDS/DTT for 5 min at 95 °C. The first well was loaded with 0.5 μL of the protein marker PageRuler Prestained Protein Ladder (Thermo Scientific), and then 10 μL of each sample was run on a 12% (w/v) 15-well gel. SDS–PAGE separation was performed at 200 V for 39 min followed by a wet tank transfer to a nitrocellulose membrane (0.2 μm, Bio-Rad) at 10 V for 60 min. The membrane was blocked with 2.5% BSA in TBS-T (Tris-buffered saline with 0.1% (v/v) Tween 20) for 60 min at room temperature. Next, the membrane was incubated with fluorescent streptavidin Alexa Fluor 647 conjugate (dilution 1:10,000 in TBS-T with 1% BSA) for 60 min. The biotin-labeled ABPs were detected at 658 nm using an Azure Biosystems Sapphire Biomolecular Imager and Azure Spot Analysis software.
For fluorescently labeled probe sample preparation, electrophoresis and membrane transfer were performed as described above. When testing the inhibitor utility, 200 nM fXIa was incubated with inhibitor (final inhibitor concentration 5 μM) for 60 min prior to probe addition. After the membrane was blocked with 2.5% BSA in TBS-T (60 min), the labeled proteins were directly imaged with a […] laser using an Azure Biosystems Sapphire Biomolecular Imager and Azure Spot Analysis software.

T3 sequence (P03951 388-625 limits assumed): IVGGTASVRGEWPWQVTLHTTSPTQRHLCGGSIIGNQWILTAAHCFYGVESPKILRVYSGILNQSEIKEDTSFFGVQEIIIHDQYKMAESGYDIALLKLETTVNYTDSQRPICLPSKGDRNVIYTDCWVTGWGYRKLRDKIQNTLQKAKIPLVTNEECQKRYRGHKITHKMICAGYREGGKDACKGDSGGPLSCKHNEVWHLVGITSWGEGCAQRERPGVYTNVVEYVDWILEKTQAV
T3 sequence (P03951 19-387 partner limits assumed): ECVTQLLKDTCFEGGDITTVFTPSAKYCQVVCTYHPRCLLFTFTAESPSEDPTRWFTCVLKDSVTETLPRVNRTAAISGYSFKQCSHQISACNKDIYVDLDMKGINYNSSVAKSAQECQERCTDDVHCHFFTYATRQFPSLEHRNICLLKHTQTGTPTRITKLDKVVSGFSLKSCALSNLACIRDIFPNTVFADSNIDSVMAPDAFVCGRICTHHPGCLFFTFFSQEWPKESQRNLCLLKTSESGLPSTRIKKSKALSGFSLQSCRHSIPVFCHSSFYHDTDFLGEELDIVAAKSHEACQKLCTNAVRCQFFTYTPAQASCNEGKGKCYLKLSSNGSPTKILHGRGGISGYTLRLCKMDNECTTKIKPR
T1 sequence (P04070 212-461 limits assumed): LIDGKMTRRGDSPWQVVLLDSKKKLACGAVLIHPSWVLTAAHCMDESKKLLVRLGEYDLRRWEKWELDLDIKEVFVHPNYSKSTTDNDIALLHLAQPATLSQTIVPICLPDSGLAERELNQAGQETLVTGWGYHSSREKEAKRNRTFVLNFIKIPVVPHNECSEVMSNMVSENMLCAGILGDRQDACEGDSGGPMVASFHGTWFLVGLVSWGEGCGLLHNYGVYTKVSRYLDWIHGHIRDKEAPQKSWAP
T1 sequence (P04070 43-197 partner limits assumed): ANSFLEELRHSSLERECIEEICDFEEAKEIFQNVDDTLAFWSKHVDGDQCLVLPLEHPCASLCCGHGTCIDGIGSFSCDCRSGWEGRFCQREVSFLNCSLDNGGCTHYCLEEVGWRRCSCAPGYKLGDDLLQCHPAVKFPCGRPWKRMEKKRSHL
T2 sequence (P00742 235-488 limits assumed): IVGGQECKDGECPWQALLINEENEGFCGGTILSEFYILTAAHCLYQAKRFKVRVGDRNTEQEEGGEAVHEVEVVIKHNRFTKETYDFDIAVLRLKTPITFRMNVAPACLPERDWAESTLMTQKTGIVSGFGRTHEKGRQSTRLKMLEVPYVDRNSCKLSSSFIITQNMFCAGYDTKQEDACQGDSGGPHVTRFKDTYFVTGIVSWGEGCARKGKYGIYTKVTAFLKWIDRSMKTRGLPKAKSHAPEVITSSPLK
T2 sequence (P00742 41-179 partner limits assumed): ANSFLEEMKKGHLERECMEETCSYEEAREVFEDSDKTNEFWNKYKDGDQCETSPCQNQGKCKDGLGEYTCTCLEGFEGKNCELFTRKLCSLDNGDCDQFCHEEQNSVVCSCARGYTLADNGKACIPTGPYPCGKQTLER

In the case of “Ac-Tyr(2,6-Cl2-Z)-Nle-Glu(Bzl)-ArgP(OPh)2 [I-SMXI5]”, the “kobs/I APC” value (APC) is reported as 1,570 ± 20 M^-1 s^-1, the “kobs/I fXa” value (fXa) is reported as 100 ± 13 M⁻¹ s⁻¹ and the “kobs/I fXIa” value (fXIa [1]) is reported as 54,700 ± 2,800 M^-1 s^-1 and 54,700 ± 2800 M^-1 s^-1. The “effect of preblocking fXIa on P-SMXI52 labeling” value (fXIa [2]) was “completely inhibited the fluorescent signal”.
